Experiment: RP, Waters ACQUITY UPLC BEH C18, 50 × 2.1 mm, 1.7 µm, 40 °C, 0.6 mL/min, estimated dead time 0.18 min; A: water + 0.1% formic acid, pH 3; B: acetonitrile + 0.1% formic acid, pH 3; gradient (min/%B) 0/5 7/100 8/100
Conditions: stereoisomer not certain

| SMILES | LC retention time |
| --- | --- |
| COc1c(C=O)c(O)cc2c1C(=O)c1ccccc1C2=O | 3.59 min |
| COc1cc(C=O)c([N+](=O)[O-])cc1OC [4,5-dimethoxy-2-nitrobenzaldehyde] | 0.304 min |
| CC1(C)CCC2(C(=O)O)CC=C3C(C)(CCC4C3(C)CCC3C(C)(C)C(OC(=O)c5ccc(O)cc5)C(OC(=O)c5ccc(O)cc5)CC43C)C2C1 (stereo unspecified) | 5.54 min |
| CC(C)C1CCC2(C)C3CCC45CCCC4C2(CCC(=O)C2(C)COC4(C)CCC2O4)C1N5C3 (stereo unspecified) | 2.86 min |
| CC[C@]12C=CCN3CC[C@]4(C(=C(C(=O)OC)C1)Nc1ccccc14)C32 (stereo partly specified) | 2.17 min |
| C/C(=C\CC/C=C(\C)CC/C=C(\C)CCC(O)C(C)(O)CO)CC/C=C(\C)CCC(O)C(C)(C)O (stereo unspecified) | 4.79 min |
| C[C@@H]1CC2(NCCS2)C(=O)C(O[C@@H]2CC3CCC4C(CC[C@]5(C)[C@@H](C6=CC(=O)OC6)CC[C@]45O)[C@@]3(C=O)C[C@H]2O)O1 (stereo partly specified) | 1.89 min |
| CC(C)=CCC1CC23CC(CC=C(C)C)C(C)(C)C(CC=C(C)C)(C(=O)C(C(=O)c4ccc(O)c(O)c4)=C2OC1(C)C)C3=O (stereo unspecified) | 5.93 min |
| COC1=CC(=O)C2(c3cc(=O)c4c(O)cc(O)cc4o3)C(CC=C(C)C2C[C@H]2[C@@H](C)[C@@H](O)C[C@H]3C(C)(C)C[C@H](O)C[C@]23C)C1=O (stereo partly specified) | 1.14 min |
| COc1cc(CC(COC(C)=O)C(COC(=O)/C=C/c2ccc(O)c(O)c2)Cc2ccc(O)c(OC)c2)ccc1O (stereo unspecified) | 1.83 min |
| COc1ccc(C(=O)[C@@H](c2coc3cc(O)ccc3c2=O)C(c2ccc(O)cc2)c2ccc(O)cc2)c(O)c1 | 3.14 min |
| CC1CC2CCCC3N4C(=O)CCCC4CC(C1)N23 (stereo unspecified) | 0.978 min |
| C=C(C(=O)C(OC(C)=O)C(C)C1C(OC(C)=O)CC2(C)C3C4OC4C4C(C)C(=O)C=CC45CC35CCC12C)C(C)CO (stereo unspecified) | 3.48 min |
| CCCCCCCCCCCCCC(=O)OC12CC(C)C3(O)C(C4OC4(CO)C(O)C4(O)C(=O)C(C)=CC43)C1C2(C)C (stereo unspecified) | 6.55 min |
| C=C1C(=O)O[C@@H]2C[C@@]3(C)CCC[C@H](C)C3=C[C@H]12 | 4.26 min |
| CC[C@H]1NC2C[C@@]3(C(=O)N(OC)c4cc(OC)ccc43)C3OCC2C1[C@@H]3O (stereo partly specified) | 1.32 min |
| O=C1c2ccc(O)cc2OC(c2ccc(O)cc2)C1C1C(=O)c2ccc(O)cc2OC1c1ccc(O)cc1 (stereo unspecified) | 2.67 min |
| C[C@H](C/C=C/C(C)(C)O)[C@H]1CC[C@@]2(C)C3C(=O)C=C4C(CCC(O)C4(C)C)[C@]3(C)CC[C@]12C (stereo partly specified) | 4.37 min |
| Cc1ccc2c(c1)C1(C(C)C)CCC2(C)OO1 (stereo unspecified) | 4.34 min |
| C=C1C(=O)C23C(O)CC4C(C)(C)CCCC4(COC(C)=O)C2C(O)CC1C3O (stereo unspecified) | 2.42 min |
| CCCCCCCCCCCCO[C@@H]1O[C@@H](C)[C@H](O[C@@H]2O[C@@H](C)[C@H](OC(C)=O)[C@@H](O[C@@H]3O[C@@H](C)[C@H](OC(C)=O)[C@@H](O[C@@H]4O[C@@H](C)[C@H](OC(C)=O)[C@@H](O)[C@H]4O)[C@H]3OC(C)=O)[C@H]2O)[C@@H](O)[C@H]1O | 5.82 min |
| COC(=O)C1=COC(C)C2CN3CCC4(C(=O)Nc5ccccc54)C3CC12 (stereo unspecified) | 1.69 min |
| Oc1ccc(C2Oc3cc(O)cc4c3C2c2cc(O)cc(O)c2C(c2ccc(O)cc2)C2c3cc(O)cc(O)c3C(c3ccc(O)cc3)C42)cc1 (stereo unspecified) | 2.23 min |
| COc1cc2c(cc1O)C(Cc1ccc(O)cc1)NCC2 (stereo unspecified) | 1.05 min |

| SMILES | LC retention time |
| --- | --- |
| CCCC(CC(=O)O)C1=C2OC(=O)C(C(=O)C(C)CC)=C(O)C2(CC=C(C)C)CC(CC=C(C)C)C1(C)C (stereo unspecified) | 6.55 min |
| CC(=O)OC1CC(O)C23COC(O)C1(C)C2CC(O)C1(C)C3=C(O)C(=O)C2(C)C(c3ccoc3)CC3OC312 (stereo unspecified) | 2.39 min |
| C[C@@H]1O[C@@H](Oc2c(-c3ccc(O)c(O)c3)oc3cc(O)cc(O)c3c2=O)[C@H](O)[C@H](O)[C@H]1O | 0.266 min |
| COc1cc2c(cc1O)CC1NCCc3cc(O)c(OC)c-2c31 (stereo unspecified) | 1.11 min |
| COc1cc2c(cc1OC)Oc1c(O)ccc3c1C(C2)N(C)CC3 (stereo unspecified) | 1.37 min |
| COc1ccc2c(c1OC)C(=O)OC2C1c2c(cc3c(c2OC)OCO3)CCN1C (stereo unspecified) | 1.83 min |
| O=C1c2c(O)cc(O)c(C3C(=O)c4c(O)cc(O)cc4OC3c3ccc(O)cc3)c2OC(c2ccc(O)cc2)C1O (stereo unspecified) | 1.54 min |
| CC1CC2CC(=O)C3CCCN4CCCC2C34C1 (stereo unspecified) | 1.06 min |
| COc1cc(CC[N+](C)(C)C)c2ccc3cc4c(c5c3c2c1OC5)OCO4 | 0.975 min |
| CC(=O)OC(C)(C)C=CC(=O)C(C)(O)C1C(O)CC2(C)C3CC=C4C(=COC(=O)C4(C)C)C3(C)C(=O)CC12C (stereo unspecified) | 3.14 min |
| CC(O)c1cncc2c(=O)n3c(cc12)-c1[nH]c2ccccc2c1CC3 (stereo unspecified) | 3.25 min |
| C=C(C)C1CCC2(C(=O)O)CCC3(C)C(CCC4C5(C)CCC(OC(=O)/C=C/c6ccc(O)c(O)c6)C(C)(C)C5CCC43C)C12 (stereo unspecified) | 5.65 min |
| CC1CC2CC3CCCC(=O)N3C3CCC(O)C(C1)N23 (stereo unspecified) | 0.92 min |
| CCCCCCCCCCCCO[C@@H]1O[C@@H](C)[C@H](O[C@@H]2O[C@@H](C)[C@H](OC(C)=O)[C@@H](O[C@@H]3O[C@@H](C)[C@H](OC(C)=O)[C@@H](O[C@@H]4O[C@@H](C)[C@H](OC(C)=O)[C@@H](OC(C)=O)[C@H]4O)[C@H]3OC(C)=O)[C@H]2O)[C@@H](O)[C@H]1O | 6.09 min |
| CC(=O)OC(CCc1ccccc1)Cc1cc(=O)c2c(o1)OC1(C)CCC(C(C)C)C2C1 (stereo unspecified) | 4.97 min |
| CC(C)=CC1CC(C2CCC3(C)C4=CCC5C(C)(C)C(O)CCC5(C)C4CC(C=O)=C23)C(O)O1 (stereo unspecified) | 5.19 min |
| COc1cc(/C=C/C(=O)OCC(Cc2ccc(O)c(OC)c2)C(COC(C)=O)Cc2ccc(O)c(OC)c2)ccc1O (stereo unspecified) | 2.3 min |
| COc1cc(O)ccc1CCC(c1ccc(O)cc1)c1cc(CCC(=O)c2ccc(O)cc2)c(O)cc1O (stereo unspecified) | 2.1 min |
| COc1cc(-c2oc3cc(OC)c(OC)c(O)c3c(=O)c2OC)ccc1O | 2.66 min |
| COc1c(O)c(OC)c(C(=O)C2CC=C(CCC=C(C)C)CC2c2ccccc2)c(O)c1OC (stereo unspecified) | 5.76 min |
| CC(=O)OC(C)(C)/C=C/C(=O)[C@](C)(O)[C@H]1[C@H](O)C[C@@]2(C)[C@@H]3CC=C4C(C=C(O)C(=O)C4(C)C)[C@]3(C)C(=O)C[C@]12C (stereo partly specified) | 3.63 min |
| O=C1c2c(O)cc(O)c(C3C(=O)c4c(O)cc(O)cc4OC3c3ccc(O)cc3)c2OC(c2ccc(O)c(O)c2)C1O (stereo unspecified) | 0.319 min |
| COC(=O)CC(C1=C2OC(=O)C(C(=O)CC(C)C)=C(O)C2(CC=C(C)C)CC(CC=C(C)C)C1(C)C)c1ccccc1 (stereo unspecified) | 6.83 min |
| CC(=O)O[C@@H](C[C@@H](C)C1=C2CC(O)C3[C@@]4(C)CCC(=O)C(C)(C)C4CC[C@]3(C)[C@@]2(C)CC1)[C@H]1OC1(C)C (stereo partly specified) | 5.4 min |

| SMILES | LC retention time |
| --- | --- |
| CC[C@@H]1C(=O)N2CCc3c([nH]c4ccccc34)[C@H]2CC1/C(=C\OC)C(=O)OC (stereo partly specified) | 2.38 min |
| C=C[C@H]1CN2CCC3c4ccccc4NC3[C@H]2C[C@@H]1/C(=C\OC)C(=O)OC (stereo partly specified) | 2.64 min |
| CC[C@@H]1CN(C)C[C@@]2(C(=O)OC)Cc3c([nH]c4ccccc34)C(=O)C[C@@H]12 | 1.76 min |
| CC1(C)CCC[C@]2(CO)C1CC[C@@]13C[C@@H](CCC12)[C@@](O)(COC(=O)/C=C/c1ccc(O)c(O)c1)C3 (stereo partly specified) | 3.4 min |
| C=C1COC(=O)C12C[C@@]1(C)C([C@@H](OC(=O)/C=C/SC)CC[C@@H]1C)[C@H]2OC(=O)/C(C)=C\C (stereo partly specified) | 4.71 min |
| CC(C)(O)/C=C/C(=O)[C@](C)(O)[C@H]1[C@H](O)C[C@@]2(C)C3CC=C4C(C=C(O)C(=O)C4(C)C)[C@]3(C)C(=O)C[C@]12C (stereo partly specified) | 3 min |
| COc1cc2c(cc1O)CC1NCCc3cc(OC)c(OC)c-2c31 (stereo unspecified) | 1.58 min |
| COc1cc2c3c(c1O)Oc1ccc(cc1)CC1c4c(cc(OC)c(O)c4Oc4ccc(cc4)CC3N(C)CC2)CCN1C (stereo unspecified) | 1.44 min |
| CCCC(CC(=O)O)C1=C2OC(=O)C(C(=O)CC(C)C)=C(O)C2(CC=C(C)C)CC(CC=C(C)C)C1(C)C (stereo unspecified) | 6.51 min |
| CC1(C(=O)O)CCCC2(C)C3CCC4CC3(C=C4CO)CCC12 (stereo unspecified) | 3.51 min |
| C=C(C(=O)C(OC(C)=O)C(C)C1C(OC(C)=O)CC2(C)C3CCC4C(C)C(=O)C=CC45CC35CCC12C)C(C)C (stereo unspecified) | 5.46 min |
| C[C@@H]1CC2(NCCS2)[C@]2(O)OC3C[C@@]4(C=O)C(CCC5C4CC[C@]4(C)C(C6=CC(=O)OC6)CC[C@]54O)CC3OC2O1 (stereo partly specified) | 0.611 min |
| C=C(C)C(CCC(C)(C)O)Cc1c(O)cc(O)c2c1OC(c1ccc(O)cc1O)CC2=O (stereo unspecified) | 2.97 min |
| O=C1CC(c2ccc(O)cc2)Oc2c1c(O)cc(O)c2C1C(=O)c2c(O)cc(O)cc2OC1c1ccc(O)cc1 (stereo unspecified) | 2.36 min |
| C=C(C(=O)C(O)C(C)C1C(OC(C)=O)CC2(C)C3CC(O)C4C(C)C(=O)C=CC45CC35CCC12C)C(C)CO (stereo unspecified) | 3.41 min |
| COc1ccc(OC)c([N+](=O)[O-])c1/C=C/[N+](=O)[O-] [1,4-dimethoxy-2-nitro-3-[(1E)-2-nitroethenyl]benzene] | 0.72 min |
| CC(C)=CCC1CC2(CC=C(C)C)C(O)=C(C(=O)CC(C)C)C(=O)OC2=C(C(CC(=O)O)c2ccccc2)C1(C)C (stereo unspecified) | 6.29 min |
| CC1=C(O)C(=O)C=C2C1=CC=C1[C@@]2(C)CC[C@@]2(C)[C@@H]3C[C@](C)(C(=O)O)CC[C@]3(C)CC[C@]12C | 5.33 min |
| Cn1c(-c2ccc3c(c2)OCO3)cc(=O)c2ccccc21 | 2.43 min |
| COC1=C(C)C(=O)O/C1=C1\OC2CCCN3C(C4CC(C)C(=O)O4)CCC3C2C1C (stereo unspecified) | 1.55 min |
| CCC(C)C(=O)C1=C(O)C2(CC=C(C)C)CC(CCC(C)(C)O)C(C)(C)C(C(CC(=O)O)c3ccccc3)=C2OC1=O (stereo unspecified) | 5 min |
| COc1cc2ccc(=O)oc2cc1OC [6,7-dimethoxy-2H-chromen-2-one] | 1.87 min |
| CCC(C)C(=O)C1=C(O)C2(CC=C(C)C)CC(CCC(C)(C)OC(=O)C(F)(F)F)C(C)(C)C(C(CC(=O)O)c3ccccc3)=C2OC1=O (stereo unspecified) | 6.11 min |

— the RepoRT retention time repository
